Laboratory results published in ChEMBL document CHEMBL1201862, “PubChem BioAssay data set” (2004).
The source made the active and inactive calls. Cut-off read from the data, not from the text of the source, for most assays here: actives have a measured EC50 and inactives only a lower limit.

Columns and labels:
[1] = biological target: T1, Histone-lysine N-methyltransferase NSD2 (Homo sapiens, UniProt O96028); assay type: biochemical
T1 sequence (O96028 whole entry): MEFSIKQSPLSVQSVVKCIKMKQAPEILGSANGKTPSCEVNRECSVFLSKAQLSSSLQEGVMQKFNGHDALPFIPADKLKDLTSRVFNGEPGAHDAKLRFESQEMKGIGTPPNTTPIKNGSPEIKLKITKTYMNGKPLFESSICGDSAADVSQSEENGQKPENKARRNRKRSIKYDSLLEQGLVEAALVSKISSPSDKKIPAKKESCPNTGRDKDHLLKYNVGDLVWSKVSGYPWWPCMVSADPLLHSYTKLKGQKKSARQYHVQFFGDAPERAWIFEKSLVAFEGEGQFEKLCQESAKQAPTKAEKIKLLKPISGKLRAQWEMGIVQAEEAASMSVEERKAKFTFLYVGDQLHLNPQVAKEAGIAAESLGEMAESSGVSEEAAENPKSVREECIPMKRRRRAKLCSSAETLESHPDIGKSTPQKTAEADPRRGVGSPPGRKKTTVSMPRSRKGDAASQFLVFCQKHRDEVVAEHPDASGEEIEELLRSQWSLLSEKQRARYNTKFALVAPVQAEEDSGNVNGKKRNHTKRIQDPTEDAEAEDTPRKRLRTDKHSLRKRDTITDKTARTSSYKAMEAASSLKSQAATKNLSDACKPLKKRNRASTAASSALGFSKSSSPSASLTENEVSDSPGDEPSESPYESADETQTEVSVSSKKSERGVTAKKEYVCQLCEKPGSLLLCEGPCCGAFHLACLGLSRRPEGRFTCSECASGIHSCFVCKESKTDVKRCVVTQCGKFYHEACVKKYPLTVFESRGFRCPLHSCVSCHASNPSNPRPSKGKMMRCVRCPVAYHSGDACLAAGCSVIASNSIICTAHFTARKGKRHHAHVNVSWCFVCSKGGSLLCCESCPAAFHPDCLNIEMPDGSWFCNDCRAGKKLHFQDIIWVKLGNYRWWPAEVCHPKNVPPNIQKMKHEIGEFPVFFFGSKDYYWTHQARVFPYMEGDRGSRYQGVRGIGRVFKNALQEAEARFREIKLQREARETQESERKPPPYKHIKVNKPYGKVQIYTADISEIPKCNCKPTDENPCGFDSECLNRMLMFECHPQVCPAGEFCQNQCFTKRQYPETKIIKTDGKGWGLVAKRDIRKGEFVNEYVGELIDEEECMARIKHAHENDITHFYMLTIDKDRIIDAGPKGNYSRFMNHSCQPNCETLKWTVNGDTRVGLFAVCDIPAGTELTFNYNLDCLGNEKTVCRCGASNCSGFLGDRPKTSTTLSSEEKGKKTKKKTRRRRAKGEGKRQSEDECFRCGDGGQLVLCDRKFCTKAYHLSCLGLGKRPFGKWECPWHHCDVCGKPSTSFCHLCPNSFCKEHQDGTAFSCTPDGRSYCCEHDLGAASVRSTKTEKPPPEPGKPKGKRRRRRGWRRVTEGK

Protein RecA = biological target: T2, Protein RecA (Mycobacterium tuberculosis, UniProt P9WHJ3); assay: Fluorescence Cell-Free Homogeneous Dose Retest to Identify Inhibitors of RecA-Intein Splicing Activity. [Related pubchem assays (depositor defined):AID2097, AID2223, AID489010, AID492950]; assay type: functional
T2 sequence (P9WHJ3 whole entry): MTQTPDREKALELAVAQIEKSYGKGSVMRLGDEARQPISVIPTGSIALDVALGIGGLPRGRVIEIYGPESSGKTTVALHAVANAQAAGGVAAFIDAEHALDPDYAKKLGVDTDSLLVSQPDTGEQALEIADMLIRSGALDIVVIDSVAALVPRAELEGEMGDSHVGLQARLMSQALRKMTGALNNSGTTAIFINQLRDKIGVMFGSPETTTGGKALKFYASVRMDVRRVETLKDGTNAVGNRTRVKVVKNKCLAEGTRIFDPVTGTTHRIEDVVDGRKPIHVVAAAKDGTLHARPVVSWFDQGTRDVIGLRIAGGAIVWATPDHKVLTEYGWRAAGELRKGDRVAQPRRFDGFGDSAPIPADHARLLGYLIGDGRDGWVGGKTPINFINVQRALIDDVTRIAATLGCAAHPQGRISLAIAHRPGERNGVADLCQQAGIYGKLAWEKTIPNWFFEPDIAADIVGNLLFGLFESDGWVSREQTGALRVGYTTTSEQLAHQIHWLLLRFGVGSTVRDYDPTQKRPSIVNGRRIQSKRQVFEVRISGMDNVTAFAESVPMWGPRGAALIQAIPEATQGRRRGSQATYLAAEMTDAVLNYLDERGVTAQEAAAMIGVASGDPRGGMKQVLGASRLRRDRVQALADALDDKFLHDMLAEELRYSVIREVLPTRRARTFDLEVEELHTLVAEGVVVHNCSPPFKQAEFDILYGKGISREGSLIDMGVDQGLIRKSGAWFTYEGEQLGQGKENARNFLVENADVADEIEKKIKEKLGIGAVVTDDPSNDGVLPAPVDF

[2] = test system: Streptococcus sp. 'group A'; assay: growth inhibition of control SK(-) GAS strain, dose response, counter-screen for streptokinase expression inhibitor project, luminescence, kanamycin, BacTiterGlo, confirmation (AID 1900); assay type: functional, organism-based
Streptococcus = assay: Group A Streptococcus viability loss, dose response, counter-screen for streptokinase expression inhibitor project, luminescence, BacTiterGlo (AID 1915); assay type: functional, organism-based;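 note: potency for reduction of bacterial viability or growth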
Streptokinase A = biological target: T3, Streptokinase A (Streptococcus pyogenes serotype M1, UniProt P10520); assay: S. pyogenes streptokinase expression inhibitors, potency, dose response, plasminogen activation absorbance, OD405 (AID 1914); assay type: functional, Streptococcus pyogenes M1 GAS;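 note: secreted streptokinase activity via plasminogen activation per viability signal from cell pellet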
T3 sequence (P10520 whole entry): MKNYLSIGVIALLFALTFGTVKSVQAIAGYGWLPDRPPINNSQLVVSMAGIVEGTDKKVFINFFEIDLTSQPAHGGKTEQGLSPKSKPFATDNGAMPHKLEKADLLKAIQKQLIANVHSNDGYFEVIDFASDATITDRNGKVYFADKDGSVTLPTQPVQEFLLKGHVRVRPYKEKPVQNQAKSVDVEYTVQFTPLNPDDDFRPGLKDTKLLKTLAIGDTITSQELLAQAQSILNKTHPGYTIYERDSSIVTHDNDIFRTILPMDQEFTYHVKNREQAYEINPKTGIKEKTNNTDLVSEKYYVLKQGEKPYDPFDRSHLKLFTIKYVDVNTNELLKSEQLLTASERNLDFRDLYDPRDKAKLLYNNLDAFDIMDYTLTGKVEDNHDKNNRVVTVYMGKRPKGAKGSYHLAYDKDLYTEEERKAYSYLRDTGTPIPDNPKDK

Row | Compound | AC50 [1] | EC50 (Protein RecA) | EC50 [2] | EC50 (Streptococcus) | EC50 (Streptokinase A)
1 | c1coc(-c2nnc(-c3ccco3)nn2)c1 | 5.23 µM (active) | 7.01 µM (active) | – | – | –
2 | COc1ccc(CC2=CC(=O)c3ccccc3C2=O)cc1 | 10.5 µM (active) | 3.37 µM (active) | 11.4 µM (active) | 9.74 µM (active) | > 150 µM (not active)
3 | O=C(Nc1cccc(NC(=O)c2ccccc2Cl)c1)c1ccc([N+](=O)[O-])o1 | – | – | 4.47 µM (active) | 20.4 µM (inconclusive) | > 150 µM (not active)
